This is an account of results in article PMC6522510 (Nature Communications, 2019).

Like-named read-outs stand apart in the source and are kept apart here.

Among the test systems are M07e; ML-2; CMS; U937; MOLM-13; CMK; CHRF288-11; MV4-11.
Common to all, as to parameters: species or system AML cell lines (8); Primary HTS, single concentration about 10 uM, Cell Titer Glo viability; log10 luminescence, per cent inhibition relative to cycloheximide control
Common to all, as to conditions: 72 h, relative to cycloheximide control, log10 luminescence, inhibitor
Background: In ATP-based viability assays light output follows the ATP content of the culture.

Turning to `Fc1ccc(Nc2nccc(-c3c(-c4ccc(C(F)(F)F)cc4)nn4ncccc34)n2)cc1F` [SJ000573224-1, U17838/186/3], the M07e %inh with M07e is -1.97%. Besides, in the test with ML-2, the ML-2 %inh was determined as 2.7%. In addition, the CMS %inh in the test with CMS is -1.104%. Besides, in the test with U937, the U937 %inh is listed as 0.5152%. For the same compound, the MOLM-13 %inh in the test with MOLM-13 is given as -1.248%. In addition, the CMK %inh in the test on CMK amounted to 0.9298%. For the same compound, the CHRF288-11 %inh in the test with CHRF288-11 was -0.9437%. The MV4-11 %inh in the test with MV4-11 was -1.825%.
As for `Nc1c(C(=O)c2cccc(C#CCO)c2)cnn1-c1ccc(F)cc1` [SJ000581005-1], in the test with M07e, the M07e %inh was 1.15%. For the same compound, in the test with ML-2, the ML-2 %inh was -1.489%. For the same compound, the CMS %inh with CMS is given as 3.189%. Moreover, the U937 %inh in the test on U937 is -1.339%. The MOLM-13 %inh with MOLM-13 is -0.3055%. Also, in the test with CMK, the CMK %inh is -3.113%. Also, the CHRF288-11 %inh in the test on CHRF288-11 is reported as -2.428%. In addition, the MV4-11 %inh with MV4-11 was -2.436%.
Turning to `Cn1c(=O)c(Oc2ccc(F)cc2F)cc2cnc(NC3CCC(O)CC3)nc21` (stereo not shown) [SJ000581046-1], the M07e %inh in the test with M07e is 1.519%. The ML-2 %inh with ML-2 came out at 1.601%. For the same compound, the CMS %inh with CMS is -2.545%. The U937 %inh in the test with U937 amounted to 2.264%. Further, in the test with MOLM-13, the MOLM-13 %inh is 1.486%. Further, the CMK %inh with CMK is listed as -4.641%. In addition, in the test with CHRF288-11, the CHRF288-11 %inh is recorded as 5.265%. The MV4-11 %inh in the test on MV4-11 is -0.7465%.
With `Cn1c(=O)c2c(ncn2C)n(C)c1=O` [SJ000285694-6, CAFFEINE], the M07e %inh in the test on M07e turned out to be 4.484%. The ML-2 %inh with ML-2 was 0.4974%. Moreover, the CMS %inh in the test with CMS is on record as 0.8967%. Besides, in the test with U937, the U937 %inh is recorded as -2.594%. Besides, in the test with MOLM-13, the MOLM-13 %inh is listed as -2.617%. For the same compound, the CMK %inh with CMK is reported as -3.637%. Moreover, the CHRF288-11 %inh with CHRF288-11 is -2.164%. The MV4-11 %inh with MV4-11 is given as -1.738%.
For the compound `COc1ccc2cc(-c3c(-c4ccncc4)nc(-c4ccc(S(C)(=O)=O)cc4C)n3C)ccc2c1` [SJ000573196-1, NJ44157-082B1], the M07e %inh in the test with M07e was -0.09869%. Further, in the test with ML-2, the ML-2 %inh amounted to 0.1738%. Also, the CMS %inh in the test with CMS stood at 1.339%. Besides, the U937 %inh in the test with U937 was -1.98%. In addition, the MOLM-13 %inh with MOLM-13 stood at 0.5598%. Also, in the test with CMK, the CMK %inh came to 17.63%. Also, the CHRF288-11 %inh with CHRF288-11 amounted to 3.66%. The MV4-11 %inh with MV4-11 came to 2.69%.
Consider `CO/N=C1\CN(c2nc3c(cc2F)c(=O)c(C(=O)O)cn3C2CC2)CC1CN` (stereo not shown) [SJ000556758-1, GEMIFLOXACIN MESILATE], for which, in the test on M07e, the M07e %inh is on record as 5.532%. Moreover, the ML-2 %inh in the test on ML-2 was determined as 0.2536%. The CMS %inh in the test on CMS stood at 4.675%. Besides, the U937 %inh in the test on U937 is 9.491%. Moreover, the MOLM-13 %inh in the test with MOLM-13 turned out to be 8.66%. In addition, the CMK %inh in the test with CMK was 10.74%. Moreover, the CHRF288-11 %inh with CHRF288-11 turned out to be 4.811%. Moreover, the MV4-11 %inh in the test on MV4-11 is 8.469%.
Regarding `CC(C)(C)c1cnc(CSc2cnc(NC(=O)C3CCNCC3)s2)o1` [SJ000574284-1, BMS-387032 | SNS-032], the M07e %inh in the test on M07e is given as 111.6%. The ML-2 %inh in the test with ML-2 is on record as 59.52%. For the same compound, the CMS %inh with CMS was determined as 97.36%. The U937 %inh with U937 was 69.97%. In the test with MOLM-13, the MOLM-13 %inh is recorded as 98.7%. For the same compound, in the test on CMK, the CMK %inh stood at 91.14%. In the test with CHRF288-11, the CHRF288-11 %inh turned out to be 54.06%. Moreover, the MV4-11 %inh in the test on MV4-11 amounted to 73.5%.
Regarding `CC(C)C(=O)OCC(=O)[C@@]12O[C@H](C3CCCCC3)O[C@@H]1C[C@H]1[C@@H]3CCC4=CC(=O)C=C[C@]4(C)[C@H]3[C@@H](O)C[C@@]12C` [SJ000565158-2, CICLESONIDE], in the test with M07e (M07e %inh, 10 µM), the M07e %inh was 1.744%. In addition, the ML-2 %inh in the test with ML-2 (ML-2 %inh, 10 µM) is on record as -2.112%. Also, the CMS %inh in the test with CMS (CMS %inh, 10 µM) amounted to 2.27%. Besides, the U937 %inh in the test with U937 (U937 %inh, 10 µM) is given as 6.134%. Also, in the test on MOLM-13 (MOLM-13 %inh, 10 µM), the MOLM-13 %inh is on record as -0.3458%. Also, in the test on CMK (CMK %inh, 10 µM), the CMK %inh came out at 0.8609%. Besides, the CHRF288-11 %inh with CHRF288-11 (CHRF288-11 %inh, 10 µM) is reported as 3.888%. Also, the MV4-11 %inh with MV4-11 (MV4-11 %inh, 10 µM) was -3.886%.
As for `CC(C)c1[nH]nc2c1N=C(c1ccccc1Cl)c1cc([N+](=O)[O-])ccc1N2` [SJ000580955-1], the M07e %inh with M07e is reported as 0.02064%. Besides, in the test on ML-2, the ML-2 %inh is given as -0.2118%. Moreover, in the test on CMS, the CMS %inh is -2.316%. Also, in the test on U937, the U937 %inh is listed as -1.286%. For the same compound, in the test with MOLM-13, the MOLM-13 %inh turned out to be 0.5223%. The CMK %inh in the test with CMK came to 2.501%. Also, the CHRF288-11 %inh in the test with CHRF288-11 was 1.018%. Moreover, the MV4-11 %inh in the test with MV4-11 was 1.567%.
For `Fc1ccc(-c2c(-c3ccncc3)nc3n2CCS3)cc1` [SJ000573197-1, EXSB/CR-9802-49AZ], the M07e %inh in the test on M07e stood at 1.347%. For the same compound, in the test with ML-2, the ML-2 %inh turned out to be 4.223%. Further, the CMS %inh in the test with CMS came to 6.192%. Besides, the U937 %inh in the test with U937 is listed as 19.21%. Further, the MOLM-13 %inh with MOLM-13 is -3.2%. Moreover, the CMK %inh in the test with CMK was 1.128%. Also, the CHRF288-11 %inh in the test on CHRF288-11 is listed as 6.614%. Moreover, the MV4-11 %inh in the test with MV4-11 is listed as 10.89%.
`O=C1C(c2c[nH]c3ccccc23)=C(c2c[nH]c3ccccc23)C(=O)N1O` [SJ000581067-1]: the M07e %inh in the test on M07e is given as 0.7451%. Further, the ML-2 %inh in the test on ML-2 is on record as -0.2137%. Further, the CMS %inh in the test on CMS was -0.1746%. The U937 %inh in the test on U937 is reported as -1.683%. Also, the MOLM-13 %inh with MOLM-13 stood at 0.2373%. Also, the CMK %inh in the test with CMK is listed as -5.714%. The CHRF288-11 %inh with CHRF288-11 is on record as 18.95%. In addition, the MV4-11 %inh in the test with MV4-11 came to 1.166%.
For the compound `NC1=NC(=O)/C(=C/c2ccc3ncccc3c2)S1` [SJ000581167-1], the M07e %inh in the test with M07e is given as -0.544%. Further, in the test with ML-2, the ML-2 %inh came to 6.393%. Moreover, the CMS %inh with CMS is 1.297%. Also, the U937 %inh in the test on U937 is listed as 10.35%. Further, in the test with MOLM-13, the MOLM-13 %inh was found to be 12.5%. Also, the CMK %inh with CMK was found to be 14.91%. For the same compound, in the test with CHRF288-11, the CHRF288-11 %inh worked out at 7.843%. Moreover, the MV4-11 %inh with MV4-11 turned out to be 20.86%.
For the compound `CCN1CCC(C(=O)Nc2n[nH]c3nnc(-c4cccc(F)c4F)cc23)CC1` [SJ000573202-1, JW48822-155B0], the M07e %inh in the test on M07e worked out at 22.9%. Besides, the ML-2 %inh with ML-2 is reported as 2.893%. Further, in the test on CMS, the CMS %inh came out at 98.67%. Moreover, the U937 %inh in the test on U937 came to 29.66%. The MOLM-13 %inh in the test with MOLM-13 was determined as 18.95%. Moreover, the CMK %inh in the test on CMK is given as 106.6%. Also, the CHRF288-11 %inh with CHRF288-11 is 19.17%. In addition, in the test on MV4-11, the MV4-11 %inh stood at 52.48%.
Regarding `Nc1c(C(=O)c2cccc(C(O)(CO)CO)c2)cnn1-c1ccc(F)cc1` [SJ000581150-1], the M07e %inh in the test on M07e worked out at 0.2609%. Also, the ML-2 %inh in the test with ML-2 is listed as -0.9818%. The CMS %inh in the test on CMS was determined as 0.8259%. Moreover, the U937 %inh with U937 is listed as -0.03378%. Moreover, the MOLM-13 %inh in the test with MOLM-13 is reported as 1.373%. Further, in the test on CMK, the CMK %inh is -0.6841%. Also, the CHRF288-11 %inh with CHRF288-11 was -1.927%. The MV4-11 %inh in the test on MV4-11 is 2.176%.
`CC(=O)N1CCC(Nc2ncc3cc(Oc4ccc(F)cc4F)c(=O)n(C)c3n2)CC1` [SJ000580990-1]: the M07e %inh in the test on M07e was 1.958%. The ML-2 %inh in the test on ML-2 is -1.665%. Moreover, the CMS %inh in the test with CMS was determined as 0.4119%. For the same compound, the U937 %inh with U937 is listed as 4.841%. Further, in the test with MOLM-13, the MOLM-13 %inh is recorded as -1.534%. Further, the CMK %inh with CMK was determined as 3.354%. In the test with CHRF288-11, the CHRF288-11 %inh is recorded as 0.9354%. The MV4-11 %inh in the test on MV4-11 is 0.8846%.
Consider `NS(=O)(=O)c1ccc(-c2ccc3c(NC(=O)C4CC4)n[nH]c3c2)cc1` [SJ000573140-1, VB100064-161A1], for which the M07e %inh in the test on M07e was -0.07238%. Also, the ML-2 %inh with ML-2 is reported as 0.5159%. The CMS %inh in the test with CMS is given as -3.489%. Besides, in the test with U937, the U937 %inh is reported as -0.5779%. Also, in the test with MOLM-13, the MOLM-13 %inh was -3.649%. For the same compound, the CMK %inh in the test with CMK is recorded as -4.867%. The CHRF288-11 %inh in the test on CHRF288-11 was 4.361%. In the test on MV4-11, the MV4-11 %inh is -0.6023%.
With `CS(=O)(=O)CCNCc1nc(-c2ccc3ncnc(Nc4ccc(OCc5cccc(C(F)(F)F)c5)cc4)c3c2)cs1` [SJ000573071-1, U14859/60/2], in the test with M07e, the M07e %inh was 1.42%. The ML-2 %inh in the test on ML-2 is given as 1.048%. Also, the CMS %inh with CMS is listed as 1.221%. In the test with U937, the U937 %inh is on record as 0.6329%. Further, in the test on MOLM-13, the MOLM-13 %inh turned out to be 70.81%. Also, the CMK %inh in the test on CMK came to 3.287%. In addition, the CHRF288-11 %inh with CHRF288-11 is given as -1.328%. Further, the MV4-11 %inh in the test on MV4-11 is 64.74%.
